Measured values as given in patent publication US11013696B2, “Lipids and lipid compositions for the delivery of active agents” (Novartis AG, priority 2013, dated 2021).

Tests used:
[1] = Percent encapsulation of plasmid DNA in lipid nanoparticles (Quant-iT Ribogreen); format: physicochemical
Method: All equipment and disposable supplies are certified free of RNase activity by the manufacturer or rendered RNase free by use of the RNaseZap reagent (LifeTechnologies). Plasmid is encapsulated at a cationic lipid amine to DNA phosphate (N:P) molar ratio of 4:1. Lipids (cationic lipid, DSPC, cholesterol and lipidated PEG) are dissolved in ethanol. The molar ratios are 40:10:38:2, respectively. The mixture is sonicated briefly, then gently agitated for 5 minutes and then maintained at 37° C. until use. Plasmid is exchanged into citrate buffer pH 6.0 by use of Amicon Ultra-15 centrifugal concentrators, and the final concentration is adjusted to 0.053 mg/ml and held at 37° C. until use. An equal volume of lipids in ethanol, plasmid in citrate buffer, and citrate buffer alone are drawn into disposable syringes. Tubing leading from syringes containing lipids and DNA are attached to the T junction, and tubing leading from the syringe containing citrate buffer alone is paired with the tubing exiting the T-junction over a collection vessel containing a stir bar on an active stir plate. Syringes are placed in a syringe pump set to expel contents at a flow rate of 1 ml per minute. The pump is activated, and the collected DNA in lipid nanoparticles is transferred to SnakeSkin dialysis tubing (10,000 MWCO, Thermo Scientific). Material is dialyzed against RNAse- and pyrogen-free 1× phosphate buffered saline overnight at 4° C.
Percent encapsulation of plasmid DNA in lipid nanoparticles is determined using the Quant-iT Ribogreen RNA Assay kit (Life Technologies). The LNP-DNA suspension is assayed in buffer (DNA outside the particle), and buffer plus Triton X-100 detergent (total DNA). The difference calculated is the DNA inside the particle. Prepare a 1000 ng/mL stock using unpackaged plasmid and use this to generate a standard curve (0 ng/ml, 15.63-1000 ng/ml) in TE and TE+0.75% Triton X-100. Prepare LNP-plasmid samples in TE buffer and TE buffer+0.75% Triton X-100 with appropriate dilution so that reading is in the range of standard curve (25 fold). In a 384-well plate (Costar non-treated #3573) add 0.04 ml of standard (in duplicate) or sample (in triplicate) per well. Dilute Ribogreen reagent 240-fold in TE buffer and add 0.06 ml per well. Mix contents of wells and measure fluorescence (excitation=480 nm, emission=520 nm). Subtract background values (no DNA) from standard and test sample values and determine the concentrations of DNA in the samples using the standard curves. Determine the percent encapsulation of the sample by dividing the difference in concentrations between sample+triton and sample in buffer alone by the sample+triton concentration.

[2] = tested on: human leptin; assay: Human leptin in mouse plasma (ELISA) after IV tail vein injection of encapsulated leptin mRNA; format: in vivo; conditions: hLeptin
Method: Human leptin in mouse plasma was measured by ELISA. Antibodies purchased from the R&D Systems duoset (Cat #DY398E, part #840279 for capture antibody and part #840280 for detection antibody) were reconstituted using PBS and titered, again using PBS. The capture antibody was coated at 4 ug/ml in 30 ul/well on a white Nunc® Maxisorp 384 well plate (Cat #460372). After an overnight incubation at room temperature the capture antibody was aspirated and the plate blocked for 2 hours at room temperature with 90 ul/well of KPL milk blocker (Cat #50-82-00). Once the incubation was completed the plate was aspirated and recombinant standards and samples were added to the plate at 30 ul/well for 2 hours at 37° C. while shaking at 600 rpm. Sample/standard dilutions were made using casein sample diluent. Washing/aspiration 3 times with 100 ul/well followed, using Teknova plate wash solution (Cat #P1192). Next, detection antibody was diluted using casein detection antibody diluent to 12.5 ng/ml and added at 30 ul/well for 2 hours room temperature. After this incubation, the plate was washed again and a solution of poly-streptavidin-HRP (Cat #21140) at a 1:1250 dilution in HRP dilution buffer was added to each well (30 ul/well) and incubated for 30 minutes room temperature. A final wash/aspiration removed the HRP solution and a chemiluminescent substrate was added at 30 ul/well (Cat #1859678 & 1859679). The plate was quickly read using a SpectramaxM5 plate reader with a 50 ms integration time. The dynamic range of the ELISA is from 100-2,000 […] (6.25-125 pM) of human leptin. The assay is applicable to plasma from mice, rats and cynomolgus monkeys.
Before the tail vein injection, mouse body weights were recorded and diet weighted, with mice grouped according to their body weights. Mice were prepared by warming them under a heating lamp for ˜2 minutes, with the mice about 12 inches from heat lamp. […]
On day 0, animals were weighed and sorted according to average body weight. Mice were dosed, and food intake (FI) was recorded, on each of days 1-7 and days 9, 11, and 16.

[3] = tested on: human leptin; assay: Human leptin in mouse plasma (ELISA) after subcutaneous injection of encapsulated leptin mRNA; format: in vivo; conditions: hLeptin, 0.2 mpk
[4] = tested on: Factor VII; assay: Mouse Factor VII dosing and plasma Factor VII activity assay (FVII siRNA LNP, IV); format: in vivo; conditions: 0.03 mpk, XXX mice
Method: Female CD-1 mice were received from Harlan Labs and maintained on standard lab chow and water ad libitum. The animals weighed approximately 25 gr at time of dosing. Formulated Factor VII siRNA was administered as a single dose intravenously via the lateral tail vein. Approximately 48 hours after injection, the mice were euthanized by CO2 inhalation followed by exsanguination through the vena cava.
Plasma collected from injected mice was assayed for Factor VII enzyme activity using the Biophen FVII kit from Hyphen Biomedical (catalog number 221304). An assay standard curve was prepared using pooled plasma aliquots from the vehicle control animals. All samples were diluted to fall within the linear range of the standard curve and Factor VII activity relative to control plasma was reported.
Lipid nanoparticles comprising lipid compounds of formula (I) and the FVII siRNA duplex sequence listed above were tested in the Factor VII Activity Assay. The results of this assay are given in Table 34 below as a percent knock down of plasma Factor VII enzyme activity at a dose of 0.3 mg/kg and 0.03 mg/kg.

Row | % Encap. ([1]; hLep plasmid) | % Encap. ([1]; pDNA) | Compound | Expression of protein following IV injection of encapsulated mRNA ([2]; 0.2 mpk, ob/ob) | Expression of protein following SC injection of encapsulated mRNA ([3]; ob/ob) | FVII knock-down following IV injection of encapsulated siRNA [4] | Expression of protein following IV injection of encapsulated mRNA ([2]; 0.4mpk, C57) | Expression of protein following SC injection of encapsulated mRNA ([3]; C57)
1 | 96.7% | 96.4% | CCCCCCCCCCCCC(CCOC(=O)CCCCC(OCCCCCCCC)OCCCCCCCC)OC(=O)OCCCN(CC)CC (stereo not drawn) [Example 16, 3-(((3-(diethylamino)propoxy)carbonyl)oxy)pentadecyl 6,6-bis(octyloxy)hexanoate] | 21.4 ng/mL | 8.4 ng/mL | – | – | –
2 | – | – | CCCCC/C=C\C/C=C\CCCCCCCC(=O)OCC(COC(=O)CCCCCCC/C=C\C/C=C\CCCCC)OC(=O)CCC(CCCCCCCCCCCC)OC(=O)OCCCN(C)C (stereo not drawn) [Example 80, (9Z,9′Z,12Z,12′Z)-2-((4-(((3-(dimethylamino)propoxy)carbonyl)oxy)hexadecanoyl)oxy)propane-1,3-diyl bis(octadeca-9,12-dienoate)] | – | – | 95%/0.03 | – | –
3 | 95.0% | 89.3% | CCCCC/C=C\C/C=C\CCCCCCCCC(CCC(=O)OC(COC(=O)CCCCCCC)COC(=O)CCCCCCC)OC(=O)OCCCN(C)C (stereo not drawn) [Example 94, 2-(((13Z,16Z)-4-(((3-(dimethylamino)propoxy)carbonyl)oxy)docosa-13,16-dienoyl)oxy)propane-1,3-diyl dioctanoate] | – | – | – | – | –

Row | Compound | % Encap. ([1]; hLep plasmid) | % Encap. ([1]; pDNA) | Expression of protein following IV injection of encapsulated mRNA ([2]; 0.2 mpk, ob/ob) | Expression of protein following SC injection of encapsulated mRNA ([3]; ob/ob) | FVII knock-down following IV injection of encapsulated siRNA [4] | Expression of protein following IV injection of encapsulated mRNA ([2]; 0.4mpk, C57) | Expression of protein following SC injection of encapsulated mRNA ([3]; C57)
4 | CCCCCCCCCCCCC(CCOC(=O)CCCCC(COC(=O)CCCCCCC)COC(=O)CCCCCCC)OC(=O)OCCCN(CC)CC (stereo not drawn) [Example 1, 2-(10-dodecyl-3-ethyl-8,14-dioxo-7,9,13-trioxa-3-azaoctadecan-18-yl)propane-1,3-diyl dioctanoate] | 93.5% | 94.3% | – | 16.2 ng/mL | – | 66.3 ng/mL | 1.2 ng/mL
